One data set relates to Punta Toro virus. Format: functional, organism-based. The conditions noted are these: Vero.
Another data set concerns Sindbis virus. It is filed as functional, organism-based. The conditions noted are these: Vero.
Data set [1] concerns Mammalian orthoreovirus 1. Format: functional, organism-based. The conditions noted are these: Mammalian orthoreovirus 1, Vero.
Data set [2] has as its system Human immunodeficiency virus 1. It is filed as functional, organism-based. The conditions noted are these: Human immunodeficiency virus 1, 3B, CCRF-CEM.
In data set [3] the test system is Vesicular stomatitis virus. The data set can be described thus: microbe, parasite or virus in culture. The conditions noted are these: HeLa.
A short description of data set [4]: Cytotoxicity against HeLa cells assessed as alteration in cell morphology. It is filed as cell-based. The conditions noted are these: human.
For data set [5], the system named is Human alphaherpesvirus 3. The data set can be described thus: Antiviral activity against VZV OKA in HEL cells assessed as inhibition of plaque formation. Format: functional, organism-based. The conditions noted are these: Human alphaherpesvirus 3, OKA.
Another data set has as its system Human respirovirus 3. It is filed as functional, organism-based. The conditions noted are these: Human respirovirus 3, Vero.
A further data set relates to HEL. The data set can be described thus: Cytotoxicity against HEL cells assessed as inhibition of cell growth after 3 days. The conditions noted are these: human, 72 h. It is filed as cell-based.
The subject of data set [6] is Moloney murine sarcoma virus. The data set can be described thus: Antiviral activity against MSV in mouse C3H cells assessed as inhibition of virus-induced transformation after 6 days. Format: functional, organism-based. The conditions noted are these: 144 h.
A short description of data set [7]: Cytotoxicity against E6SM cells assessed as alteration in cell morphology. Format: cell-based. The conditions noted are these: human.
Data set [8] can be described thus: Cytotoxicity against CEM cells assessed as reduction of cell growth. The conditions noted are these: human, CEM (CCRF-CEM) cells. It is filed as cell-based.
Data set [9] has as its system Coxsackievirus B4. It is filed as functional, organism-based. The conditions noted are these: Enterovirus B, Vero.
A short description of data set [10]: Cytotoxicity against Vero cells assessed as alteration in cell morphology. Format: cell-based. The conditions noted are these: chlorocebus sabaeus.
Data set [11] relates to Human alphaherpesvirus 3. As to the kind of experiment: Antiviral activity against TK- VZV 07-1 in HEL cells assessed as inhibition of plaque formation. It is filed as functional, organism-based. The conditions noted are these: Human alphaherpesvirus 3, 07-1, HEL.
The test system of the next data set is Vaccinia virus. It is filed as functional, organism-based. The conditions noted are these: Orthopoxvirus vaccinia, Lederle, HEL.
The subject of data set [12] is Coxsackievirus B4. It is filed as functional, organism-based. The conditions noted are these: Enterovirus B, HeLa.
For data set [13], the system named is Human betaherpesvirus 5. Format: functional, organism-based. The conditions noted are these: Human betaherpesvirus 5, AD169, HEL.
Data set [14] can be described thus: Cytotoxicity against HEL cells assessed as alteration in cell morphology after 3 days. It is filed as cell-based. The conditions noted are these: human, read-out: Activity.
In data set [15] the test system is Human immunodeficiency virus 2. It is filed as functional, organism-based. The conditions noted are these: Human immunodeficiency virus 2, ROD, CCRF-CEM.
The subject of data set [16] is Vesicular stomatitis virus. As to the kind of experiment: microbe, parasite or virus in culture. The conditions noted are these: E6SM.
In data set [17] the test system is Respiratory syncytial virus. Format: functional, organism-based. The conditions noted are these: human respiratory syncytial virus, Long, HeLa.
Data set [18] can be described thus: Cytotoxicity against C3H cells assessed as alteration in cell morphology. It is filed as cell-based. The conditions noted are these: mouse.
The test system of another data set is Human alphaherpesvirus 2. Format: functional, organism-based. The conditions noted are these: Human alphaherpesvirus 2, G, HEL.
Data set [19] deals with Human alphaherpesvirus 1. It is filed as functional, organism-based. The conditions noted are these: Human alphaherpesvirus 1, KOS, HEL.
In data set [20] the test system is Human betaherpesvirus 5. It is filed as functional, organism-based. The conditions noted are these: Human betaherpesvirus 5, Davis, HEL.
Data set [21] has as its system Human alphaherpesvirus 1. It is filed as functional, organism-based. The conditions noted are these: Human alphaherpesvirus 1, KOS, HEL. The source holds these as a separate data set.

Converted amounts (≈) assume the structure as drawn.

By EC50 is commonly meant the concentration giving half of the maximal effect. A word on the CC50: it is the concentration giving 50% cytotoxicity. `C[C@H](Cn1cnc(N)nc1=O)OCP(=O)(O)O`: the EC50 (in the data set with Punta Toro virus; with Sindbis virus; in data set [1]; in [2]; in [3]; with Human alphaherpesvirus 3 [5]) was > 100 µg/mL in each case. For the same compound, the EC50 (with Human respirovirus 3; in [6]; in the data set on Coxsackievirus B4 [9]; with Human alphaherpesvirus 3 [11]; in the data set with Vaccinia virus; in the data set on Coxsackievirus B4 [12]) was > 100 µg/mL each time. In addition, the EC50 (in the data set on Human betaherpesvirus 5 [13]; in data set [15]; in [16]; in [17]; in the data set with Human alphaherpesvirus 2; with Human alphaherpesvirus 1 [19]) was > 100 µg/mL throughout. In addition, the concentration giving a half-maximal response (EC50) in the data set with Human betaherpesvirus 5 [20] was > 100 µg/mL. In addition, the MCC in [4], in [7], in data set [10] and in data set [18] was > 100 µg/mL throughout. Moreover, the Activity in the data set with HEL is > 50 µg/mL. Also, the CC50 in data set [8] is > 100 µg/mL. In data set [14], the MCC at 72 h is > 50 µg/mL.
On to `Nc1ncnc2c1ncn2C[C@H](O)CO` [(S)-DHPA], for which the 50% effective concentration (EC50) in the data set with Punta Toro virus was 48 µg/mL (≈ 229 µM); in the data set on Sindbis virus, 240 µg/mL (≈ 1150 µM); in data set [1] it was 48 µg/mL (≈ 229 µM); in [2], > 100 µg/mL; in data set [3], 400 µg/mL (≈ 1910 µM); with Human respirovirus 3, 48 µg/mL (≈ 229 µM). The concentration for a half-maximal effect (EC50) in [6] is > 100 µg/mL; in the data set on Coxsackievirus B4 [9], 240 µg/mL (≈ 1150 µM); in the data set on Coxsackievirus B4 [12], > 400 µg/mL; in data set [15] it was > 100 µg/mL; in [17], > 400 µg/mL. For the same compound, the MCC in data set [4] was > 400 µg/mL; in data set [7], > 400 µg/mL; in data set [10], > 400 µg/mL; in [18], > 100 µg/mL.
Regarding `Nc1nc2c(ncn2COCCO)c(=O)[nH]1` [ACYCLOVIR], the Activity in the data set with HEL is 173.5 µg/mL. Also, the EC50 with Human alphaherpesvirus 1 [21] is > 20 µg/mL; in the data set with Human alphaherpesvirus 2, 0.048 µg/mL (≈ 0.213 µM); in the data set with Human alphaherpesvirus 1 [19] it was 0.015 µg/mL (≈ 0.0666 µM). In [14], the MCC at 72 h is > 100 µg/mL.
Turning to `O=c1[nH]c(=O)n([C@H]2C[C@H](O)[C@@H](CO)O2)cc1/C=C/Br` [BRIVUDINE], the half-maximal effective concentration (EC50) in the data set on Punta Toro virus was > 400 µg/mL; with Sindbis virus, > 400 µg/mL; in data set [1], > 400 µg/mL; in data set [2], > 100 µg/mL; in [3], > 400 µg/mL; in the data set with Human alphaherpesvirus 3 [5], 0.0069 µg/mL (≈ 0.0207 µM). Moreover, the EC50 in the data set on Human respirovirus 3 is > 400 µg/mL; in data set [6], > 100 µg/mL; in the data set on Coxsackievirus B4 [9], > 400 µg/mL; with Human alphaherpesvirus 3 [11], ≥ 122 µg/mL; in the data set on Coxsackievirus B4 [12], > 400 µg/mL; in the data set with Human alphaherpesvirus 1 [21] it was > 20 µg/mL. Besides, the EC50 in data set [15] is > 100 µg/mL; in data set [16] it was > 400 µg/mL; in [17], > 400 µg/mL; in the data set with Human alphaherpesvirus 1 [19], 0.0025 µg/mL (≈ 0.0075 µM). In addition, the MCC in data set [4] was > 400 µg/mL; in [7], > 400 µg/mL; in [10], > 400 µg/mL; in data set [18] it was > 100 µg/mL. Also, the Activity result with HEL is “>= 100 ug ml-1”. In addition, the MCC at 72 h in data set [14] is > 100 µg/mL.
On to `Nc1nc(O)c2ncn(COC(CO)CO)c2n1` [GANCICLOVIR], for which the Activity in the data set with HEL is 83.6 µg/mL. Moreover, the EC50 with Human alphaherpesvirus 1 [21] is 0.91 µg/mL (≈ 3.57 µM); with Human alphaherpesvirus 2 it was 0.0096 µg/mL (≈ 0.0376 µM); in the data set with Human betaherpesvirus 5 [20], 1.5 µg/mL (≈ 5.88 µM). For the same compound, in [14], the MCC at 72 h is > 100 µg/mL.
For the compound `NC(=O)c1ncn([C@@H]2O[C@H](CO)[C@@H](O)[C@H]2O)n1` [RIBAVIRIN], the concentration for a half-maximal effect (EC50) came to 48 µg/mL (≈ 197 µM) in the data set with Punta Toro virus; 240 µg/mL (≈ 983 µM) in the data set with Sindbis virus; 48 µg/mL (≈ 197 µM) in data set [1]; 80 µg/mL (≈ 328 µM) in data set [3]; 48 µg/mL (≈ 197 µM) in the data set with Human respirovirus 3; 240 µg/mL (≈ 983 µM) in the data set on Coxsackievirus B4 [9]. The concentration giving a half-maximal response (EC50) in the data set with Coxsackievirus B4 [12] is 48 µg/mL (≈ 197 µM); in [16] it was 240 µg/mL (≈ 983 µM); in [17], 16 µg/mL (≈ 65.5 µM). In addition, the MCC in [4], in [7] and in data set [10] was > 400 µg/mL throughout.

For the origin of these results see ChEMBL document CHEMBL1142867, “Antiviral activity of triazine analogues of 1-(S)-[3-hydroxy-2-(phosphonomethoxy)propyl]cytosine (cidofovir) and related compounds” (J Med Chem, 2007).
